Reference: PubChem BioAssay AID179 (DTP/NCI, 2004)
Active and inactive are the calls of the source.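 The calls were made as follows: active = compounds giving half or more protection of infected cells from virus-caused growth loss, again on retest; inactive = the rest.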

Tested on: CEM cells HIV-1 protection, formazan growth assay
Test: NCI AIDS Antiviral Assay
Conditions: for IC50: measured here: growth of uninfected CEM cells
In short: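 CEM (human) cells, HIV-1 infected vs uninfected, 5-point dosing, formazan growth read-out. Retest threshold 50% protection.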

## Cn1c(N)c2c(=O)n(C)c3c(c2c(C#N)c1=O)CCSc1ccccc1-3
  EC50: > 9.33 µM
  IC50: > 9.33 µM

## CC(C)C1CC[C@H](C)C[C@@H]1OC(=O)C(C(=O)O[C@H]1C[C@@H](C)CCC1C(C)C)C(O)[C@@H]1OC(C)(C)O[C@H]1C1COC(C)(C)O1 (stereo not given in full)
  EC50: > 200 µM
  IC50: 7.41 µM

## N#CC(C#N)=CNC(=S)c1ccncc1
  EC50: > 200 µM
  IC50: 166 µM

## CCCCCCSSCCCCCC
  EC50: > 200 µM
  IC50: > 200 µM

## COc1ccc2c(c1)-c1c(c3cc(OC)ccc3n1CCN1CCOCC1)CC2
  outcome: inactive

## CCOC(=O)CC1(C(=O)OCC)c2[nH]c3ccccc3c2CCN1Cc1ccccc1 (stereo not given)
  EC50: > 69.2 µM
  IC50: 17.4 µM

## COc1ccccc1-n1c(N)c2c(C)c(-c3ccccc3)[nH]c2nc1=S
  EC50: > 200 µM
  IC50: 38 µM

## O=C(CN1CCOCC1)Nc1nc(-c2ccc(Cl)cc2)cs1
  EC50: > 107 µM
  IC50: 33.1 µM

## [N-]=[N+]=C1C(=O)C2CC3CC(C2)CC1C3
  EC50: > 191 µM
  IC50: > 191 µM

## C=C=C(C(=O)OC)S(=O)c1ccccc1[N+](=O)[O-] (stereo not given)
  outcome: inactive

## O=C1c2c(/C=C/c3ccc(Cl)c(Cl)c3)nc3ccccc3c2C(=O)N1CCN1CCCCC1
  EC50: > 7.59 µM
  IC50: > 7.59 µM

## COc1c(C(=O)CC2c3c(cc4oc(C)cc(=O)c4c3OC)OC(=N)C2c2nc3ccccc3[nH]2)c(O)c(OC)c2occc12 (stereo not given)
  EC50: 25.1 µM
  IC50: 49 µM

## COc1cccc(SSc2cccc(OC)c2OC)c1OC
  EC50: > 200 µM
  IC50: 16.6 µM

## COc1cc2c(c(O)c1OC)C(O)C1CCC(=O)N1C2c1cccc2ccccc12 (stereo not given)
  EC50: > 200 µM
  IC50: 52.5 µM

## OC1/C(=C/c2ccccc2)CNC/C1=C\c1ccccc1 (stereo not given)
  EC50: > 129 µM
  IC50: 79.4 µM

## C[C@@H]1C(=O)CC2(O)[C@@]13C[C@@H](OC(=O)[C@@H]3O)[C@@H](C)[C@@]21COC1=O (stereo not given in full)
  EC50: > 813 µM
  IC50: > 813 µM

## CC1=C(C#N)C2(C(=O)N(C)c3ccccc32)C(C#N)=C(C)N1c1ccccc1
  EC50: > 14.1 µM
  IC50: > 14.1 µM

## Cc1cccc(/C=N/N=C(\N)NO)n1
  EC50: > 692 µM
  IC50: 141 µM

## CC(=O)/C(=C/c1cccc(F)c1)c1ccccc1
  EC50: > 56.2 µM
  IC50: > 56.2 µM

## O=c1[nH]nc(-c2ccccc2)n1/N=C/c1ccc([N+](=O)[O-])cc1
  EC50: > 200 µM
  IC50: > 200 µM

## CCC[CH2][Sn]([CH2]CCC)([O]C(=O)c1cccc(F)c1)[O]C(=O)c1cccc(F)c1
  EC50: > 10.2 µM
  IC50: 6.61 µM

## COc1cc(C(=O)N2CCOCC2)cc(OC)c1OC
  EC50: > 200 µM
  IC50: > 200 µM

## O=C(O)C12C=CC(C1)c1ccccc12 (stereo not given)
  EC50: > 251 µM
  IC50: > 251 µM

## COc1ccc(/C=c2\[nH]c3nc(=O)c(N4CCOCC4)c(N)n3c2=O)cc1
  EC50: > 200 µM
  IC50: > 200 µM

## COC(=O)c1cc(Cc2cc(Br)cc(C(=O)OC)c2O)cc(Cl)c1O
  EC50: > 100 µM
  IC50: > 100 µM

## COC(=O)NC(Nc1ccc(Cl)cc1Cl)(C(F)(F)F)C(F)(F)F
  outcome: inactive

## O=C1C=C(c2ccccc2)C2(c3ccccc3)C1C1C(c3ccccc3)=C(c3ccccc3)C2C12SCCS2 (stereo not given)
  EC50: > 200 µM
  IC50: 3.39 µM

## O=c1[nH]c(=O)n(Cc2ccccc2)cc1B(O)O
  EC50: > 200 µM
  IC50: > 200 µM

## CCC(C)C(NC(=O)C(N)CCCN=C(N)N)C(=O)NC(CCC(N)=O)C(=O)NC(CCCN=C(N)N)C(=O)NCC(=O)N1CCCC1C(=O)NCC(=O)NC(CCCN=C(N)N)C(=O)NC(C)C(=O)NC(Cc1ccccc1)C(=O)NC(C(=O)NC(C(=O)NC(C(=O)NCC(=O)NC(CCCCN)C(N)=O)C(C)CC)C(C)OC1OC(CO)C(O)C(O)C1NC(C)=O)C(C)C (stereo not given)
  EC50: > 50.1 µM
  IC50: > 50.1 µM

## CCOCCN(Cc1ccc(CN(CCOCC)C(=O)C(Cl)Cl)cc1)C(=O)C(Cl)Cl
  EC50: > 200 µM
  IC50: > 200 µM

## CC(=O)NCCSSCCSC(=S)N1CCCCC1
  EC50: > 200 µM
  IC50: 33.9 µM

## O=C(O)c1ccccc1C1c2ccccc2Oc2ccccc21
  EC50: > 200 µM
  IC50: 35.5 µM

## Nc1[nH]c(=O)[nH]c(=O)c1N=O
  EC50: > 200 µM
  IC50: > 200 µM

## O=C(O)C1CCSS1 (stereo not given)
  EC50: > 457 µM
  IC50: 263 µM

## CC12CC(=O)Nc3ccccc3N1C(c1ccccc1)=NO2 (stereo not given)
  EC50: > 200 µM
  IC50: > 200 µM

## CC1(C)OC(=O)C(C#N)=C1/C=C\c1ccco1
  EC50: > 1100 µM
  IC50: > 1100 µM

## COc1nc2c(nc(N)n2C2OCC(O)C(O)C2O)c(=O)n1C (stereo not given)
  outcome: inactive

## CCCCOC(=O)c1cc(C(=CCC[C@H]2CC[C@@]3(C)[C@@H](CC[C@@H]4[C@@H]3CC[C@]3(C)[C@@H](C(C)CCCC(C)C)CC[C@@H]43)C2)c2cc(Cl)c(O)c(C(=O)OCCCC)c2)cc(Cl)c1O (stereo not given in full)
  EC50: > 100 µM
  IC50: > 100 µM

## Cc1cc(-c2ccccc2)nc(Nc2cc3ccccc3[nH]2)n1
  EC50: > 603 µM
  IC50: > 603 µM

## Cc1cn(C2CC(N=[N+]=[N-])C(COC(=O)CCCCCCCCCCCN=[N+]=[N-])O2)c(=O)[nH]c1=O (stereo not given)
  EC50: 0.0372 µM
  IC50: 182 µM

## CCOC(=O)c1ccc(NC(=S)Nc2ncccc2C)cc1
  EC50: > 200 µM
  IC50: 158 µM

## Cc1ccc(NC(=O)CCCC(=O)CC(=O)c2ccc(Br)cc2)cc1
  EC50: > 309 µM
  IC50: > 309 µM
